Reference: article PMC10786919, “Design-rules for stapled peptides with in vivo activity and their application to Mdm2/X antagonists” (Nature Communications, 2024)
Starred links: 1 amine or outer side, 2 acyl side, 3 side chain; linkers in the order of their positions; H or OH if unused. Positions of bridges follow the written chain, without caps; N, C: chain ends. Non-standard residues stand in square brackets, D forms with d. Residues, ends and D or L forms follow the SMILES beside them. dR8(desαMe) = O=C([C@@H](CCCCCCC=[*:3])N[*:1])[*:2]; Nle(6-ylidene) = O=C([C@H](CCCC=[*:3])N[*:1])[*:2]; 2Nal = N[C@@H](Cc1ccc2ccccc2c1)C(=O)O; tBuAla = CC(C)(C)C[C@H](N)C(=O)O; R8 = C=CCCCCCC[C@@](C)(N)C(=O)O; R5 = C=CCCC[C@@](C)(N)C(=O)O; S5 = C=CCCC[C@](C)(N)C(=O)O; Aib = CC(C)(N)C(=O)O; Ahx = NCCCCCC(=O)O

Assays:
Type in all cases: cell-based
[1] = Lactate dehydrogenase (LDH) release assay; conditions: LDH: Cytotoxicity assay EC50
Procedure, shortened: (§1)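 A p53 β-lactamase reporter HCT116 line, 8000 cells per well, is exposed to test compounds at 0.5% final DMSO and scored for LDH leakage.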

[2] = system: HCT116 cells; assay: Lactate dehydrogenase (LDH) release assay
Procedure, shortened: as §1

[3] = system: Jump-In T-REx CHO-K1 BLA cells; assay: cells; conditions: 0% FBS 4Hr; for EC50: read-out: TETCHO: Counterscreen EC50
Experimental: This assay was based on Jump-In™ T-REx™ CHO-K1 BLA cells containing a stably integrated β-lactamase under the control of an inducible cytomegalovirus (CMV) promoter. Cells were maintained in Dulbecco’s […] Eagle Medium (DMEM) with 10% fetal bovine serum (FBS), Blasticidin, and Penicillin/Streptomycin and then transferred to 1.5 ml freezing vials and stored under liquid nitrogen in growth media containing 5% DMSO. […] Cells were seeded into a 384-well plate at a density of 4000 cells per well. Peptides were then dispensed to each well using a liquid handler, ECHO 555 and incubated for 16 h. The final working concentration of DMSO was 0.5%. β-lactamase activity was detected using the ToxBLAzer Dual Screen (Invitrogen), as per the manufacturer’s instructions. Measurements were carried out using the Envision multiplate reader (Perkin–Elmer). Counterscreen activity was defined as the amount of β-lactamase activity induced by tetracycline. Measurements were taken a minimum of three times (biological replicates) and values are reported as geometric means of the replicates.

[4] = system: p53 responsive β-lactamase reporter in HCT116 cells; assay: cells; conditions: 0% FBS 4Hr; read-out: p53 reporter assay EC50
Procedure, shortened: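 Read-out used the ToxBLAzer Dual Screen for β-lactamase driven by a stably integrated p53-responsive reporter. Assay: 8000 HCT116 cells per well at 0.5% final DMSO. Reported numbers are geometric means over a minimum of three biological replicates.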

| Structure (SMILES) | EC50 [1] [µM] | LDH: Cytotoxicity assay % Effect [2] [%] | TETCHO: Counterscreen % Effect [3] [%] | EC50 [3] [µM] | EC50 [4] [µM] |
| --- | --- | --- | --- | --- | --- |
| CC(=O)N[C@H](C(=O)N[C@@H](CO)C(=O)N[C@@H](Cc1ccccc1)C(=O)N[C@]1(C)CCCCCCC=CCCC[C@@](C)(C(=O)N[C@@H](CCC(=O)O)C(=O)N[C@@H](CC(N)=O)C(=O)N[C@@H](Cc2ccc(O)cc2)C(N)=O)NC(=O)[C@H](CC(C)C)NC(=O)[C@H](CC(C)C)NC(=O)[C@H](C)NC(=O)[C@H](Cc2c[nH]c3ccccc23)NC(=O)[C@H](Cc2ccc(O)cc2)NC(=O)[C@H](CCC(=O)O)NC1=O)[C@@H](C)O [MP-1170] | > 50 | 6.762 | 61.75 | 36.8 | 16.7 |
| CC(=O)N[C@@H](CCCNC(=N)N)C(=O)N[C@@H](CCCNC(=N)N)C(=O)N[C@@H](CCCNC(=N)N)C(=O)NCCCCCC(=O)N[C@H](C(=O)N[C@@H](CO)C(=O)N[C@@H](Cc1ccccc1)C(=O)N[C@]1(C)CCCCCCC=CCCC[C@@](C)(C(N)=O)NC(=O)[C@H](CC(C)C)NC(=O)[C@H](CC(C)C)NC(=O)[C@H](C)NC(=O)[C@H](Cc2c[nH]c3ccccc23)NC(=O)[C@H](Cc2ccc(O)cc2)NC(=O)[C@H](CCC(=O)O)NC1=O)[C@@H](C)O [MP-1177] | 31.8 | 51.96 | 50.69 | 17.6 | 8.42 |
| CC(=O)N[C@H](C(=O)N[C@@H](CO)C(=O)N[C@@H](Cc1ccccc1)C(=O)N[C@]1(C)CCCCCCC=CCCC[C@@](C)(C(=O)N[C@@H](CO)C(=O)N[C@@H](C)C(=O)N[C@@H](C)C(=O)N[C@@H](CCC(=O)O)C(N)=O)NC(=O)[C@H](CC(C)(C)C)NC(=O)[C@H](CC(C)C)NC(=O)[C@H](C)NC(=O)[C@H](Cc2c[nH]c3ccccc23)NC(=O)[C@H](Cc2ccc(O)cc2)NC(=O)[C@H](CCC(=O)O)NC1=O)[C@@H](C)O [MP-143] (Ac-TSF[R8]EYWAL[tBuAla][S5]SAAE-NH2; staple 4-11) | > 50 | 5.215 | 0.6237 | > 50 | 8.92 |
| CC(=O)N[C@H](C(=O)N[C@@H](CO)C(=O)N[C@@H](Cc1ccccc1)C(=O)N[C@@H]1CCCCCCC=CCCC[C@@H](C(N)=O)NC(=O)[C@H](CC(C)(C)C)NC(=O)[C@H](CC(C)C)NC(=O)[C@H](C)NC(=O)[C@H](Cc2c[nH]c3ccccc23)NC(=O)[C@H](Cc2ccc(O)cc2)NC(=O)[C@H](CCC(=O)O)NC1=O)[C@@H](C)O [MP-150] (Ac-TSF[dR8(desαMe)]EYWAL[tBuAla][Nle(6-ylidene)]-NH2; staple 4-11) | > 50 | -0.7157 | -3.542 | > 50 | 22.3 |
| CC(=O)N[C@H](C(=O)N[C@@H](CO)C(=O)N[C@@H](Cc1ccccc1)C(=O)N[C@]1(C)CCCCCCC=CCCC[C@@](C)(C(=O)NCCCCCC(=O)N[C@@H](CCCCN)C(N)=O)NC(=O)[C@H](CC(C)C)NC(=O)[C@H](CC(C)C)NC(=O)[C@H](C)NC(=O)[C@H](Cc2c[nH]c3ccccc23)NC(=O)[C@H](Cc2ccc(O)cc2)NC(=O)[C@H](CCC(=O)O)NC1=O)[C@@H](C)O [MP-164] | > 50 | 4.255 | 0.7814 | > 50 | 7.83 |
| CC(=O)N[C@@H](CCCNC(=N)N)C(=O)N[C@@H](CCCNC(=N)N)C(=O)N[C@@H](CCCNC(=N)N)C(=O)NCCCCCC(=O)N[C@H](C(=O)N[C@@H](CO)C(=O)N[C@@H](Cc1ccccc1)C(=O)N[C@]1(C)CCCCCCC=CCCC[C@@](C)(C(=O)N[C@@H](CCC(=O)O)C(=O)N[C@@H](CC(N)=O)C(=O)N[C@@H](Cc2ccc(O)cc2)C(N)=O)NC(=O)[C@H](CC(C)C)NC(=O)[C@H](CC(C)C)NC(=O)[C@H](C)NC(=O)[C@H](Cc2c[nH]c3ccccc23)NC(=O)[C@H](Cc2ccc(O)cc2)NC(=O)[C@H](CCC(=O)O)NC1=O)[C@@H](C)O [MP-012] (Ac-RRR[Ahx]TSF[R8]EYWALL[S5]ENY-NH2; staple 8-15) | > 50 | 36.73 | 23.79 | > 50 | 34.2 |
| CC(=O)N[C@H](C(=O)N[C@@H](CO)C(=O)N[C@@H](Cc1ccccc1)C(=O)N[C@]1(C)CCCCCCC=CCCC[C@@](C)(C(=O)N[C@@H](CCC(=O)O)C(=O)N[C@@H](CC(N)=O)C(=O)N[C@@H](Cc2ccccc2)C(N)=O)NC(=O)[C@H](CC(C)C)NC(=O)[C@H](CC(C)C)NC(=O)[C@H](C)NC(=O)[C@H](Cc2c[nH]c3ccccc23)NC(=O)[C@H](Cc2ccc(O)cc2)NC(=O)[C@H](CCC(=O)O)NC1=O)[C@@H](C)O [MP-1169] | 34.1 | 37.3 | 11.25 | > 50 | 5.34 |
| CC(=O)N[C@H](C(=O)N[C@@H](CO)C(=O)N[C@@H](Cc1ccccc1)C(=O)NC(C)(C)C(=O)N[C@@H](CCC(=O)O)C(=O)N[C@@H](Cc1ccc(O)cc1)C(=O)N[C@@H](Cc1c[nH]c2ccccc12)C(=O)N[C@@H](C)C(=O)N[C@@H](CC(C)C)C(=O)N[C@@H](CC(C)(C)C)C(=O)NC(C)(C)C(N)=O)[C@@H](C)O [MP-155] (Ac-TSF[Aib]EYWAL[tBuAla][Aib]-NH2) | > 50 | -0.2131 | -0.6205 | > 50 | 12.4 |
| CC(=O)N[C@@H](CCCCN)C(=O)N[C@@H](CCCCN)C(=O)NCCCCCC(=O)N[C@H](C(=O)N[C@@H](CO)C(=O)N[C@@H](Cc1ccccc1)C(=O)N[C@]1(C)CCCCCCC=CCCC[C@@](C)(C(=O)N[C@@H](CCC(=O)O)C(=O)N[C@@H](CC(N)=O)C(=O)N[C@@H](Cc2ccc(O)cc2)C(N)=O)NC(=O)[C@H](CC(C)C)NC(=O)[C@H](CC(C)C)NC(=O)[C@H](C)NC(=O)[C@H](Cc2c[nH]c3ccccc23)NC(=O)[C@H](Cc2ccc(O)cc2)NC(=O)[C@H](CCC(=O)O)NC1=O)[C@@H](C)O [MP-013] (Ac-KK[Ahx]TSF[R8]EYWALL[S5]ENY-NH2; staple 7-14) | > 50 | -1.001 | 11.6 | > 50 | 8.65 |
| CC(=O)N[C@H](C(=O)N[C@@H](CO)C(=O)N[C@@H](Cc1ccccc1)C(=O)N[C@]1(C)CCCC=CCCC[C@](C)(C(=O)N[C@@H](CC(C)C)C(=O)N[C@@H](CC(C)C)C(=O)N2CCC[C@H]2C(=O)N[C@@H](CCC(N)=O)C(=O)N[C@@H](CC(N)=O)C(=O)N[C@@H](Cc2ccccc2)C(N)=O)NC(=O)[C@H](Cc2c[nH]c3ccccc23)NC(=O)[C@H](Cc2ccc(O)cc2)NC(=O)[C@H](CCC(=O)O)NC1=O)[C@@H](C)O [MP-1173] (Ac-TSF[R5]EYW[R5]LLPQNF-NH2; staple 4-8) | > 50 | 16.65 | 47.5 | 28.3 | 12.5 |
| CC(=O)N[C@H](C(=O)N[C@@H](CO)C(=O)N[C@@H](Cc1ccc2ccccc2c1)C(=O)NC(C)(C)C(=O)N[C@@H](CCC(=O)O)C(=O)N[C@@H](Cc1ccc(O)cc1)C(=O)N[C@@H](Cc1c[nH]c2ccccc12)C(=O)N[C@@H](C)C(=O)N[C@@H](CC(C)C)C(=O)N[C@@H](CC(C)C)C(=O)NC(C)(C)C(N)=O)[C@@H](C)O [MP-161] (Ac-TS[2Nal][Aib]EYWALL[Aib]-NH2) | > 50 | -0.5798 | 26.11 | 19.4 | 6.65 |
